Test results from PMC8916643, “Molecular physiology of pumiliotoxin sequestration in a poison frog” (PLoS ONE, 2022).

Experiments:
Assay in all cases: CiPA cell-based QPatch ion channel inhibition
Details in all cases: maximum concentration of 30 uM
[1] = target: T1, KCNQ1/minK (Homo sapiens, UniProt P51787)
T1 construct: Eurofins Discovery Services (Eurofins Panlabs Inc) ran the assay
Procedure: (§1) Assays for human CYP activity (CYP phenotyping), CYP2D6 metabolite discovery (metID), ion channel inhibition (CiPA), and G-protein coupled receptor (GPCR) activity (gpcrMAX) were performed through Eurofins Discovery Services (Eurofins Panlabs Inc, St. Charles MO, USA). In the CYP phenotyping panel, human recombinant CYP1A2, CYP2B6, CYP2C8, CYP2C9, CYP2C19, CYP2D6, and CYP3A4 were included in the assay. A concentration of 1E-07 M of PTX 251D was tested, and the percent compound remaining was quantified at 0, 15, 30, 45, and 60 minutes using HPLC-MS/MS. As a positive control, a reference compound was used for each CYP tested (see S1 File for results). In the CYP2D6 metabolism assay, human recombinant CYP2D6 was incubated with an initial concentration of 10 μM and metabolites were quantified after 90 minutes using LC-MS/MS. Two replicates were used for the CYP phenotyping panel and one replicate was used for CYP2D6 metabolite assay. The CiPA assay was a cell-based QPatch on voltage-gated sodium channel NaV1.5 (peak and late/agonist), voltage-gated potassium channels Kv4.3/KChIP2, hERG, KCNQ1/minK, Kir2.1, and voltage-gated calcium channel Cav1.2. The concentrations of PTX 251D assayed were 3, 10, and 30 μM, and a reference compound for each channel was used (see S1 File for results and individual QPatch parameters). In the gpcrMAX assay a panel of 165 GPCRs was tested through the DiscoverX PathHunter beta-arrestin enzyme fragment complementation technology, and a concentration of 10 μM PTX 251D was tested for both agonist and antagonist activity along with a reference compound for each GPCR (see S1 File for results).

[2] = target: T2, Kir2.1 (Homo sapiens, UniProt P63252)
T2 construct: Eurofins Discovery Services (Eurofins Panlabs Inc) ran the assay
T2 sequence (P63252 1-427): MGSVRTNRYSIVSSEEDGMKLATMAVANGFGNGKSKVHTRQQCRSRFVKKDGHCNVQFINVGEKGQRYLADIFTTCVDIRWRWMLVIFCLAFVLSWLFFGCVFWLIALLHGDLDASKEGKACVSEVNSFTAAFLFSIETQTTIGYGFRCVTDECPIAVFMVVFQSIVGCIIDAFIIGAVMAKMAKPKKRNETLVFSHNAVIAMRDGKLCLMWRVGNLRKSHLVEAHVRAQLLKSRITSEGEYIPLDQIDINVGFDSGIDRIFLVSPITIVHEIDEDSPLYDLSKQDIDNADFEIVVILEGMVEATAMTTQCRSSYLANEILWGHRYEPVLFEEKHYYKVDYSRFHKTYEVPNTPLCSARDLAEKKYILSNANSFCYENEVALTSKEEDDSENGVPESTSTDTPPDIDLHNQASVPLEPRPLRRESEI
Procedure: as §1

[3] = target: T3, Kv4.3/KChIP2 (Homo sapiens, UniProt Q9UK17)
T3 construct: Eurofins Discovery Services (Eurofins Panlabs Inc) ran the assay
T3 sequence (Q9UK17 1-655): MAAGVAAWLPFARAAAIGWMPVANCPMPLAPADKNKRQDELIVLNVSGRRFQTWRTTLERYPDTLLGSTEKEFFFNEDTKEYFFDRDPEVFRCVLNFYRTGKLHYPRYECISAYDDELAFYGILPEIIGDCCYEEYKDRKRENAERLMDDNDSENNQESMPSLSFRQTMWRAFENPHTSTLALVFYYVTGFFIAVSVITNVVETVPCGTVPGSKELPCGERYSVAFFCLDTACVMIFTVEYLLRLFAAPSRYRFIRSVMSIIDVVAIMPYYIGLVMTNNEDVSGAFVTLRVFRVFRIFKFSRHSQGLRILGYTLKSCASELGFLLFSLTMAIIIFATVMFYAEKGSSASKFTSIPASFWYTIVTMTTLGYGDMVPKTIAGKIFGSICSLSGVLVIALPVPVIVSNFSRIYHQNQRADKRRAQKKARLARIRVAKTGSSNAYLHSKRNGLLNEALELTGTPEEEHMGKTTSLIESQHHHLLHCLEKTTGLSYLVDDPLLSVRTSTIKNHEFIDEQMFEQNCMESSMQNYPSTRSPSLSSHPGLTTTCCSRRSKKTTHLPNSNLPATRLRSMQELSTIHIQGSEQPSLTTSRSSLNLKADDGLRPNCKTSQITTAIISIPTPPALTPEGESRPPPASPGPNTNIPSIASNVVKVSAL
T3 sequence (Q9NS61 1-270 partner): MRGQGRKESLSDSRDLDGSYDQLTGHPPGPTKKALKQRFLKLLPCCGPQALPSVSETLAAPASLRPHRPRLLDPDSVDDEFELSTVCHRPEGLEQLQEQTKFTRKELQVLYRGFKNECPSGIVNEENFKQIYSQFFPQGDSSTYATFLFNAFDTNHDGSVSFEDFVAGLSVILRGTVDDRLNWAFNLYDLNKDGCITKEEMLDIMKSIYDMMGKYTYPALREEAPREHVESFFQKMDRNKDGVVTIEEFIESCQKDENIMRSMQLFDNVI
Procedure: as §1

[4] = target: T4, hERG (Homo sapiens, UniProt Q12809)
T4 construct: Eurofins Discovery Services (Eurofins Panlabs Inc) ran the assay
Procedure: as §1

[5] = target: T5, voltage-gated sodium channel NaV1.5 (Homo sapiens, UniProt Q14524)
T5 construct: Eurofins Discovery Services (Eurofins Panlabs Inc) ran the assay
Procedure: as §1

T4 sequence (Q12809 whole entry): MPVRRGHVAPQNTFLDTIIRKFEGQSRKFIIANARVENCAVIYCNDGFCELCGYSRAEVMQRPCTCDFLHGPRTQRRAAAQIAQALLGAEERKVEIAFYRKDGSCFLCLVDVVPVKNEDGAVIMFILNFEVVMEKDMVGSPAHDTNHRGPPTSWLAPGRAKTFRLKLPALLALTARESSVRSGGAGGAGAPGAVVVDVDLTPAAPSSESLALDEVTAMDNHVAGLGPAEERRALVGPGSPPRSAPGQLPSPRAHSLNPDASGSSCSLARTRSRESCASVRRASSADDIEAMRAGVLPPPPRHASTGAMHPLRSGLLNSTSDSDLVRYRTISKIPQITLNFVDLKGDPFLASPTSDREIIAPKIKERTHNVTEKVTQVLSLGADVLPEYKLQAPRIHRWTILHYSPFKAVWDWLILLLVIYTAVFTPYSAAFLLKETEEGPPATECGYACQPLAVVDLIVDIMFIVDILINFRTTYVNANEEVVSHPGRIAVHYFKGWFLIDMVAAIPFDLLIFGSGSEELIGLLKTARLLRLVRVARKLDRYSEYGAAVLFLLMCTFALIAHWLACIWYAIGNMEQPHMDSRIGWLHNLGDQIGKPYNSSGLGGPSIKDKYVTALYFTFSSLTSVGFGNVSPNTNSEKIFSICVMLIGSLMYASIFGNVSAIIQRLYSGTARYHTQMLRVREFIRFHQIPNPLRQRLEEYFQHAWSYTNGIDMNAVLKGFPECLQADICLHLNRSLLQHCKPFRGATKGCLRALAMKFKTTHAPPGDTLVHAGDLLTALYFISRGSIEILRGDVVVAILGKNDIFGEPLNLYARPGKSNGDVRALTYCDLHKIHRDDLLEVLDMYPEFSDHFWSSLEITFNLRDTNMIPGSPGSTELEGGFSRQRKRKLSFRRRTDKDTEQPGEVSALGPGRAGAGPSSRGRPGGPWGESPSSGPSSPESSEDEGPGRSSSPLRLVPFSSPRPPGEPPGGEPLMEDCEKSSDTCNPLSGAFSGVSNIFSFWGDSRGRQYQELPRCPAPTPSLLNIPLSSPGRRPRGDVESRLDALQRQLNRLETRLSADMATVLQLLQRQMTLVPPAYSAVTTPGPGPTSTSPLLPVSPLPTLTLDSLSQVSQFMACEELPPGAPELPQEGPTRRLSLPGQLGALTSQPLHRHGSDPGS
T5 sequence (Q14524 whole entry): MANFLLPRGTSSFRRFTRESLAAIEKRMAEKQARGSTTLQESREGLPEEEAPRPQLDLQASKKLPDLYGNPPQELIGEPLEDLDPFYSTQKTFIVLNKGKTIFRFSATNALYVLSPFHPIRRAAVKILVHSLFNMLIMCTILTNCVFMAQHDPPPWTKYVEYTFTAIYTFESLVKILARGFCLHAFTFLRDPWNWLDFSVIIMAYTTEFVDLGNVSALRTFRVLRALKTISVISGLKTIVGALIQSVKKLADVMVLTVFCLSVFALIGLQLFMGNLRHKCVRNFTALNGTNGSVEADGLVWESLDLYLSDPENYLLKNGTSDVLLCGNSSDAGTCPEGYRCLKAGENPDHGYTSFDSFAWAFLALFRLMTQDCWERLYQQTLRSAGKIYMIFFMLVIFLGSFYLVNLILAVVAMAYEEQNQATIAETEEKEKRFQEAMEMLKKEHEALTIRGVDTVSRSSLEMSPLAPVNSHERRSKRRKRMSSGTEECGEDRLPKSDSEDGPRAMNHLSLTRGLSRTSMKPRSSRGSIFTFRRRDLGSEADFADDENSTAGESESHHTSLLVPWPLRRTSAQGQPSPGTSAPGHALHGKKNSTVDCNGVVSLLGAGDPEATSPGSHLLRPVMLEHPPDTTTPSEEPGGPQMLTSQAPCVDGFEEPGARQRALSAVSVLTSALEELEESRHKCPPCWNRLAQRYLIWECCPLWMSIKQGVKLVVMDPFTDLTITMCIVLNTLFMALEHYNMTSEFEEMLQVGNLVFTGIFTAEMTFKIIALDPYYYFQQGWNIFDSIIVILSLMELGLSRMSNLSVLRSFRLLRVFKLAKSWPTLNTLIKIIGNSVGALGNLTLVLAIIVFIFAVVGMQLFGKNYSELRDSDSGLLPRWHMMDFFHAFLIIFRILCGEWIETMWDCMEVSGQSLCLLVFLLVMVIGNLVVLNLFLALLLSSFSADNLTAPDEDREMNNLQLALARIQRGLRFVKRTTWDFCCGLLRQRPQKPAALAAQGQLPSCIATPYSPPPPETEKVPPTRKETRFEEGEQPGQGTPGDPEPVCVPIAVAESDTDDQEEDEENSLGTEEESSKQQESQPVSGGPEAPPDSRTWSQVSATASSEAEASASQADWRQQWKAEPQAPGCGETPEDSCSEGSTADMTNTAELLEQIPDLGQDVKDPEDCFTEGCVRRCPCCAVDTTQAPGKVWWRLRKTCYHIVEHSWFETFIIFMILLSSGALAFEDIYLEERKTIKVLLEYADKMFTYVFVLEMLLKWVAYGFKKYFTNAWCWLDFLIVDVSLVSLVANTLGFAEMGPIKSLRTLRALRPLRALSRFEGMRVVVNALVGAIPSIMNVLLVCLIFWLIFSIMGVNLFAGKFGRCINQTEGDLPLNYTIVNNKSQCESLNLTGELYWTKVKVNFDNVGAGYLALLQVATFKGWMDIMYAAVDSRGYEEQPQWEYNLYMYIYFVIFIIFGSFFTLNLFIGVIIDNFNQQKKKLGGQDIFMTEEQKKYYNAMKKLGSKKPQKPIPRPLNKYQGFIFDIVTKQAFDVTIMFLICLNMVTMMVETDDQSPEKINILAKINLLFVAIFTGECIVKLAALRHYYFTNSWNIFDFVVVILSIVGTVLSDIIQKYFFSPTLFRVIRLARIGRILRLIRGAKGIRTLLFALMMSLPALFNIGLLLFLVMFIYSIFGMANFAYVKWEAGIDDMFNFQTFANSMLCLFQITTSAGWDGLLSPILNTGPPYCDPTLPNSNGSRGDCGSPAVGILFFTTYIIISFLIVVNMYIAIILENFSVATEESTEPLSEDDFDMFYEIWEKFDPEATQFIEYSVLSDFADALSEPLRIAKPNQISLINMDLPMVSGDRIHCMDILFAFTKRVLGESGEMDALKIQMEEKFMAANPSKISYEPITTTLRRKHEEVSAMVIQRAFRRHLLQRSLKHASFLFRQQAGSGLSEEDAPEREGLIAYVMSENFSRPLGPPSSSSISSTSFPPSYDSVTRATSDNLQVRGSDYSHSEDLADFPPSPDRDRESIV
T1 sequence (P51787 whole entry): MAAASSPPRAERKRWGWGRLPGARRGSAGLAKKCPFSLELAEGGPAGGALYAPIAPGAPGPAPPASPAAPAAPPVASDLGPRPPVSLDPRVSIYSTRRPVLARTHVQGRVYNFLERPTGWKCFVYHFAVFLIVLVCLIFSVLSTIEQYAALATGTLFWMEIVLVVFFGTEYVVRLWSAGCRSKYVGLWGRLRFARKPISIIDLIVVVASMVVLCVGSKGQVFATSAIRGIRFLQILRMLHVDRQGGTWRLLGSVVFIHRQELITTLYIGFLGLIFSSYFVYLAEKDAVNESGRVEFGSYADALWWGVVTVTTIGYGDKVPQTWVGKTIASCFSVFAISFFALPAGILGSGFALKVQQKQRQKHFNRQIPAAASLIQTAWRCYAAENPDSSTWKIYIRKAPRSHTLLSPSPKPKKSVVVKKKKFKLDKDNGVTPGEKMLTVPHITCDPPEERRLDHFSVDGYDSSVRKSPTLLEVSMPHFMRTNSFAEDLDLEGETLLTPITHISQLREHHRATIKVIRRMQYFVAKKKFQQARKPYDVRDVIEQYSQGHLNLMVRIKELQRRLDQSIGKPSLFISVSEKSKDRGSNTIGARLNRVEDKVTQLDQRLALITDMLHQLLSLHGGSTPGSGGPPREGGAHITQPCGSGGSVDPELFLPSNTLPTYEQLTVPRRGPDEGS

CCCCC(C)C=C1CN2CCCC2C(C)(O)C1 (centres unmarked) [PTX 251D, pumiliotoxin (PTX 251D)]
no inhibitory effect: inhibitory effect on KCNQ1/minK [1] | inhibitory effect on Kir2.1 [2] | inhibitory effect on Kv4.3/KChIP2 [3] | inhibitory effect on hERG [4] | inhibitory effect on NaV1.5 [5]
